Assay results published in patent publication US4400199A, “Thiolcarbamate compounds and their use as herbicides” (priority 1981, dated 1983).
Converted amounts (≈) assume the structure as drawn. “And” between values parts separate entries of the source, which are not always exact repeats. Equal entries are not always repeated.

Key:
barnyard grass = experiment: Experiment 2: herbicidal effects against barnyard grass (pot test, granules); type: in vivo, Echinochloa crus-galli; conditions: 2.5 leaf-stage, 25 days
[1] = Experiment 4: subacute toxicity to fish; type: in vivo, 2-year-old carps; conditions: carp, water; 0.2 ppm; 3 weeks; read-out: Survival rate after 3 weeks
Description: (§1) With respect to the compounds according to the present invention and the comparative compounds listed in Table 4, there were conducted tests on subacute toxicity to 2-year-old carps having an average weight of 20 g.
(§2) Ten 2-year-old carps were released in each of 25-liter water tanks equipped with an air-blowing apparatus and acclimatized to the surroundings while feeding for 10 days. Water in each of the water tanks was continuously replaced with fresh water so that the residence time of water in the water tanks is 6 hours. Each test compound was added to a predetermined quantity of supply water to prepare a 0.2 ppm aqueous solution of each compound, and each of the aqueous solutions was continuously added to the water in the tank. After three weeks, the hematocrit values of all the survival carps were determined. The hematocrit value used herein is intended to mean a volume percentage of erythrocyte contained in the blood.

carps = experiment: Experiment 4: subacute toxicity to fish; type: in vivo, 2-year-old carps
Description: as §1, §2

[2] = system: barnyard grass (Echinochloa crus-galli); experiment: Experiment 1: herbicidal effects against barnyard grass (pot test, emulsifiable concentrate); type: in vivo
[3] = Experiment 3: acute toxicity to fish; type: in vivo, Black-carp fry; conditions: carp, water; for LC50 at 48 h: read-out: Median lethal concentration TLm (48hrs); for LC50 at 96 h: read-out: Median lethal concentration TLm (96hrs)
Description: With respect to the compounds according to the present invention and the comparative compounds (Compound 10, Compound 12 and Compound 13), there were conducted tests on acute toxicity to carps.
In 25-liter water tanks made of glass was charged 20 liters of water. 12 Black-carp fry were released to each of the water tanks and bred while feeding for 7 days. Then, the whole quantity of water in each of the tanks was replaced with fresh water, and feeding to the carps was stopped. After three days, a prescribed amount of 1 weight % solution of a test compound in acetone was added to water in the water tank.
The number of survival fish in each tank was counted after 24 hours, 48 hours and 96 hours, successively.
The TLm (median tolerance limit=lethal concentration 50%) was determined by the Doudorff's method (Sewage & Ind. Wastes 23 (1951) 1380-1397).

broad-leaf weeds = experiment: Experiment 2: herbicidal effects against broad-leaf weeds (pot test, granules); type: in vivo; conditions: 25 days
[4] = system: Mizugayatsuri (Cyperus serotinus); experiment: Experiment 2: herbicidal effects against Mizugayatsuri (pot test, granules); type: in vivo; conditions: 25 days
[5] = system: Hotarui (Scirpus juncoides); experiment: Experiment 2: herbicidal effects against Hotarui (pot test, granules); type: in vivo; conditions: 25 days
rice plants = experiment: Experiment 2: phytotoxicity to rice plants (pot test, granules); conditions: 25 days
[6] = 1.5 leaf-stage of barnyard grass, 150 g/10a., 25 days
[7] = 1.5 leaf-stage of barnyard grass, 300 g/10a., 25 days
[8] = 1.5 leaf-stage of barnyard grass, 600 g/10a., 25 days
[9] = 3 leaf-stage of barnyard grass, 150 g/10a., 25 days
[10] = 3 leaf-stage of barnyard grass, 300 g/10a., 25 days
[11] = 3 leaf-stage of barnyard grass, 600 g/10a., 25 days

SMILES | herbicidal activity (barnyard grass) (barnyard grass; 150 g/10a.) | herbicidal activity (barnyard grass) (barnyard grass; 300 g/10a.) | herbicidal activity (barnyard grass) (barnyard grass; 600 g/10a.) | survival at 504 h [1] [%] | Average Hematocrit Value of survival fish (carps; 0.2 ppm, 3 weeks) [%] | herbicidal activity (barnyard grass) [2, 6] | herbicidal activity (barnyard grass) [2, 7] | herbicidal activity (barnyard grass) [2, 8] | herbicidal activity (barnyard grass) [2, 9] | herbicidal activity (barnyard grass) [2, 10] | LC50 at 48 h [3] [µg/mL] | Herbicidal activity broad-leaf weeds (broad-leaf weeds; 150 g/10a.) | Herbicidal activity broad-leaf weeds (broad-leaf weeds; 300 g/10a.) | Herbicidal activity broad-leaf weeds (broad-leaf weeds; 600 g/10a.) | Herbicidal activity Mizugayatsuri (Cyperus serotinus) ([4]; 150 g/10a.) | Herbicidal activity Mizugayatsuri (Cyperus serotinus) ([4]; 300 g/10a.) | Herbicidal activity Mizugayatsuri (Cyperus serotinus) ([4]; 600 g/10a.) | Herbicidal activity Hotarui (Scirpus juncoides) ([5]; 150 g/10a.) | Herbicidal activity Hotarui (Scirpus juncoides) ([5]; 300 g/10a.) | Herbicidal activity Hotarui (Scirpus juncoides) ([5]; 600 g/10a.) | also measured
CC1CCCCN1C(=O)SCCCCCl (stereo not drawn) [Compound 1, S-(4-chlorobutyl)-(2-methyl)-piperidine-1-carbothioate] | 5 (more than 90%) | 5 (more than 90%) | 5 (more than 90%) | 100 | 30 | 5 (more than 90%) | 5 (more than 90%) | 5 (more than 90%) | 5 (more than 90%) | 5 (more than 90%) | 11 (≈ 44 µM) | 5 (more than 90%) | 5 (more than 90%) | 5 (more than 90%) | 4 (70 to 89%) | 4 (70 to 89%) | 5 (more than 90%) | 4 (70 to 89%) | 5 (more than 90%) | 5 (more than 90%) | herbicidal activity (barnyard grass) [2, 11]: 5 (more than 90%); LC50 at 96 h [3]: 10 µg/mL (≈ 40 µM)
CC1CCC(C)CN(C(=O)SCCCCCl)C1 (stereo not drawn) [Compound 7, S-(4-chlorobutyl)-3,6-dimethyl-hexahydro-1H-azepine-1-carbothioate] | 5 (more than 90%) | 5 (more than 90%) | 5 (more than 90%) | 100 | 34 | 5 (more than 90%) | 5 (more than 90%) | 5 (more than 90%) | 5 (more than 90%) | 5 (more than 90%) | 2.6 (≈ 9.36 µM) | 4 (70 to 89%) | 5 (more than 90%) | 5 (more than 90%) | 3 (50 to 69%) | 4 (70 to 89%) | 5 (more than 90%) | 3 (50 to 69%) | 5 (more than 90%) | 5 (more than 90%) | herbicidal activity (barnyard grass) [2, 11]: 5 (more than 90%); LC50 at 96 h [3]: 2.6 µg/mL (≈ 9.36 µM)
CC1CCC(C)CN(C(=O)SCCCCl)C1 (stereo not drawn) [Compound 6, S-(3-chloropropyl)-3,6-dimethyl-hexahydro-1H-azepine-1-carbothioate] | 5 (more than 90%) | 5 (more than 90%) | 5 (more than 90%) | 100 | 34 | 5 (more than 90%) | 5 (more than 90%) | 5 (more than 90%) | 5 (more than 90%) | 5 (more than 90%) | 4.4 (≈ 16.7 µM) | 4 (70 to 89%) | 5 (more than 90%) | 5 (more than 90%) | 3 (50 to 69%) | 4 (70 to 89%) | 5 (more than 90%) | 4 (70 to 89%) | 5 (more than 90%) | 5 (more than 90%) | herbicidal activity (barnyard grass) [2, 11]: 5 (more than 90%); LC50 at 96 h [3]: 3.7 µg/mL (≈ 14 µM)
CCSC(=O)N1CCCCCC1 [Compound 13, S-ethyl-hexahydro-1H-azepine-1-carbothioate, reference compound] | 3 (50 to 69%) | 4 (70 to 89%) | 5 (more than 90%) | 50 | 25 | – | – | – | – | – | 34 (≈ 182 µM) | 1 (10 to 29%) | 2 (30 to 49%) | 3 (50 to 69%) | 0 (less than 10%) | 1 (10 to 29%) | 1 (10 to 29%) | 0 (less than 10%) | 1 (10 to 29%) | 2 (30 to 49%) | phytotoxicity rice plant (rice plants; 150 g/10a.): 0 (less than 10%); phytotoxicity rice plant (rice plants; 300 g/10a.): 0 (less than 10%); phytotoxicity rice plant (rice plants; 600 g/10a.): 2 (30 to 49%); subacute toxicity to carps (in words) (carps; 0.2 ppm, 3 weeks): high subacute toxicity to carps; survival of carps (in words) (carps; 0.2 ppm, 3 weeks): extremely low; symptoms of anemia in carps (in words) (carps; 0.2 ppm, 3 weeks): remarkable symptons of anemia; subacute anemia symptoms in fish (in words) (carps; general statement): subacute anemia symptoms in fish; herbicidal activity (barnyard grass) ([2]; in vivo): 5 (key: 5: more than 90%; 4: 70 to 89%; 3: 50 to 69%; 2: 30 to 49%; 10 to 29%; less than 10%) and 4 (key: 5: more than 90%; 4: 70 to 89%; 3: 50 to 69%; 2: 30 to 49%; 10 to 29%; less than 10%) and 3 (key: 5: more than 90%; 4: 70 to 89%; 3: 50 to 69%; 2: 30 to 49%; 10 to 29%; less than 10%)
